# Results as given in the kinase profiling compilation of Christmann-Franck et al. (2016).
# Experiments:
# Experiment in all cases: radiometric filter-binding kinase assay, Kinase HotSpot
# Conditions in all cases: compound 0.5 µM; ATP 10 µM
# ACVR1 (human) = ACVR1 (human) (UniProt Q04771)
# BLK (human) = BLK (human) (UniProt P51451)
# CAMK1D (human) = CAMK1D (human) (UniProt Q8IU85)
# CDK1 CCNB1 (human) = CDK1 CCNB1 (human) (UniProt P06493+P14635)
# CDK6 CCND3 (human) = CDK6 CCND3 (human) (UniProt P30281+Q00534)
# CHUK (human) = CHUK (human) (UniProt O15111)
# CHUK (human), sequence (O15111 whole entry, looked up): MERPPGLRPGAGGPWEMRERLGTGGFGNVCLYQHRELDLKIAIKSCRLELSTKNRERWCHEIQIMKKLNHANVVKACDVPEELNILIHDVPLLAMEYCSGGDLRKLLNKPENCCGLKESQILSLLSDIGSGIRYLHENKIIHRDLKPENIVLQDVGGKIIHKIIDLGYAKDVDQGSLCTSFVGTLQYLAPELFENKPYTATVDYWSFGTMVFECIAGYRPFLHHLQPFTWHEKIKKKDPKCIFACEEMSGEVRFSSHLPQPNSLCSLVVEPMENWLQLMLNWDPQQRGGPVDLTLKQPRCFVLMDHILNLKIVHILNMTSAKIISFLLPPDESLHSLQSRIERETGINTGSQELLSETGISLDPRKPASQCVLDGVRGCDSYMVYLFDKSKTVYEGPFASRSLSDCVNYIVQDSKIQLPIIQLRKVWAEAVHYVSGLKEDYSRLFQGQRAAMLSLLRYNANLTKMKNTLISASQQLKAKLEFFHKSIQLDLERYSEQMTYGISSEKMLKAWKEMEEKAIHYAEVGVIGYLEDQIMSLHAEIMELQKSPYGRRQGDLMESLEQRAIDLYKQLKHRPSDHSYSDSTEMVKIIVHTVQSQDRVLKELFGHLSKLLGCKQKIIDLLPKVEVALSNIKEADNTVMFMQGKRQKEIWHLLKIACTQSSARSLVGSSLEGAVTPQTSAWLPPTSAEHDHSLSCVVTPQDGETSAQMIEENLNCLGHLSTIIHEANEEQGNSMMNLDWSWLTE
# ERBB4 (human) = ERBB4 (human) (UniProt Q15303)
# FGFR4 (human) = FGFR4 (human) (UniProt P22455)
# FLT3 (human) = FLT3 (human) (UniProt P36888)
# GRK4 (human) = GRK4 (human) (UniProt P32298)
# HIPK1 (human) = HIPK1 (human) (UniProt Q86Z02)
# HIPK4 (human) = HIPK4 (human) (UniProt Q8NE63)
# IGF1R (human) = IGF1R (human) (UniProt P08069)
# KIT (human) = KIT (human) (UniProt P10721)
# MAP2K2 (human) = MAP2K2 (human) (UniProt P36507)
# MAP2K2 (human), sequence (P36507 whole entry, looked up): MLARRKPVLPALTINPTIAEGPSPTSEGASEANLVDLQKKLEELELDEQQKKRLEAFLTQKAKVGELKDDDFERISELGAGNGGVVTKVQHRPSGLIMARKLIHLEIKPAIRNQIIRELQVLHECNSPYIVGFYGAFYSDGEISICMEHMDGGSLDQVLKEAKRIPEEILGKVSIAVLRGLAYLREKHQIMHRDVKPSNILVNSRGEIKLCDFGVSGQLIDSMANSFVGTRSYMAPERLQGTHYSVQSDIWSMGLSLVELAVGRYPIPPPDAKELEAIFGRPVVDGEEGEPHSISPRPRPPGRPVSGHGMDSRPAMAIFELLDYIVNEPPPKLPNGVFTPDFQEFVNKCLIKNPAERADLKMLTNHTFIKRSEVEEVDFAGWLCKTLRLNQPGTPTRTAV
# MAP3K10 (human) = MAP3K10 (human) (UniProt Q02779)
# MAP3K7 TAB1 (human) = MAP3K7 TAB1 (human) (UniProt O43318+Q15750)
# MAPK14 (human) = MAPK14 (human) (UniProt Q16539)
# MAPKAPK3 (human) = MAPKAPK3 (human) (UniProt Q16644)
# MST1R (human) = MST1R (human) (UniProt Q04912)
# MST1R (human), sequence (Q04912 whole entry, looked up): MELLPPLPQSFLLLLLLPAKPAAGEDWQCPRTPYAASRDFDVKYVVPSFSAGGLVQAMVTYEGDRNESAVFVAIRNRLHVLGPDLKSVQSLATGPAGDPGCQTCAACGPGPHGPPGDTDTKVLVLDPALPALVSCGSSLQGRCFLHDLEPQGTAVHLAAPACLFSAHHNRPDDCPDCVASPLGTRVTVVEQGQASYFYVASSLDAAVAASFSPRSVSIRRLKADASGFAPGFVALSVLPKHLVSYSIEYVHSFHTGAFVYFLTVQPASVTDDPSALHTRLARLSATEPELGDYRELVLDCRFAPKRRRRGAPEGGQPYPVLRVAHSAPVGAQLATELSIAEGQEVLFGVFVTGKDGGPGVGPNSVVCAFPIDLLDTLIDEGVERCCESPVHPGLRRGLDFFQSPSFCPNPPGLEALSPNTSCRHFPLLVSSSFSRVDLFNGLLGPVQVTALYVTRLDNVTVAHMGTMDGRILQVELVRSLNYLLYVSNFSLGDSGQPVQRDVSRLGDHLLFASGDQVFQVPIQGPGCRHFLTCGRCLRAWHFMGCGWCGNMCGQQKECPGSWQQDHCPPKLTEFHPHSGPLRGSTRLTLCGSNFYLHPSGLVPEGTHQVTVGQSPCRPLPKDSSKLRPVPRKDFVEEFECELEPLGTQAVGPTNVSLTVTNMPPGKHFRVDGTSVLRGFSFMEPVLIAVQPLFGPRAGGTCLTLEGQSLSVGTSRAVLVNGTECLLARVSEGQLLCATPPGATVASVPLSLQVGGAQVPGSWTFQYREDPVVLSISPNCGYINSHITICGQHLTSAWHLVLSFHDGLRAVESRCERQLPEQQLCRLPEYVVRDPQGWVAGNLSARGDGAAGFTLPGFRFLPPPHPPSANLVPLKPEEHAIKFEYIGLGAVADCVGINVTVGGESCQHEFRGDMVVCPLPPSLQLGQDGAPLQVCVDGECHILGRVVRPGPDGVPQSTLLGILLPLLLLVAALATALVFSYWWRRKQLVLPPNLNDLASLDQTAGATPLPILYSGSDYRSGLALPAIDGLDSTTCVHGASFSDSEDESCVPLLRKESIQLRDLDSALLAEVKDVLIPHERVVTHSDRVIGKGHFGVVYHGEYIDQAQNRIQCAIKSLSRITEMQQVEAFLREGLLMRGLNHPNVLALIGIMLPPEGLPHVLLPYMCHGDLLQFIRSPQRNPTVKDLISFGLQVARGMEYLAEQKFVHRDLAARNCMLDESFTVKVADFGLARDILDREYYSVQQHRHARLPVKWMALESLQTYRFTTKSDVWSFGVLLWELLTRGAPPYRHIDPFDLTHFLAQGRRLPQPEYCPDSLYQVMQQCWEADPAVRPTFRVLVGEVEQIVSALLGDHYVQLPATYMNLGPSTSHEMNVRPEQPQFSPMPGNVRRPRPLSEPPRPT
# MUSK (human) = MUSK (human) (UniProt O15146)
# MUSK (human), sequence (O15146 whole entry, looked up): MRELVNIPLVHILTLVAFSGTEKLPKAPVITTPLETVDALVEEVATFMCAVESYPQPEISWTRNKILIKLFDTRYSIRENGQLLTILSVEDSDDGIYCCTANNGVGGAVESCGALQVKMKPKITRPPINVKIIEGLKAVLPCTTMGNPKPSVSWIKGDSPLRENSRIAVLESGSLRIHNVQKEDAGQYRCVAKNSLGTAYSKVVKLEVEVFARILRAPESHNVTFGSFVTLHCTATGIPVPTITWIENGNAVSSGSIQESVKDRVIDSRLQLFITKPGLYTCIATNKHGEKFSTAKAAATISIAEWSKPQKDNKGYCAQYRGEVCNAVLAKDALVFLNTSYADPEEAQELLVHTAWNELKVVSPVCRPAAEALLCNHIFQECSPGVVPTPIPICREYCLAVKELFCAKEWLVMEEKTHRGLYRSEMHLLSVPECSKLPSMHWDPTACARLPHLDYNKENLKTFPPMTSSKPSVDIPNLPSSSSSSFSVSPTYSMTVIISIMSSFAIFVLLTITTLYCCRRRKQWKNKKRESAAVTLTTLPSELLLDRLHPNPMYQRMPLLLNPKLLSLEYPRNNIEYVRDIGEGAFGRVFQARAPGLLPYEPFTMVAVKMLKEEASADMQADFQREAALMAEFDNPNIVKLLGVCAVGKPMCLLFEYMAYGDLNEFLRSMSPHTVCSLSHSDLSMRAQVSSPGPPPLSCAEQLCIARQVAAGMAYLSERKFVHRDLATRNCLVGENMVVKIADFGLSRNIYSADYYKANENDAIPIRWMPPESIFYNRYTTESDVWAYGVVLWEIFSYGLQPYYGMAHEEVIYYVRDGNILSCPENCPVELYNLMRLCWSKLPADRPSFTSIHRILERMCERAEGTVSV
# MYLK (human) = MYLK (human) (UniProt Q15746)
# MYLK2 (human) = MYLK2 (human) (UniProt Q9H1R3)
# NEK1 (human) = NEK1 (human) (UniProt Q96PY6)
# NTRK1 (human) = NTRK1 (human) (UniProt P04629)
# NTRK1 (human), sequence (P04629 whole entry, looked up): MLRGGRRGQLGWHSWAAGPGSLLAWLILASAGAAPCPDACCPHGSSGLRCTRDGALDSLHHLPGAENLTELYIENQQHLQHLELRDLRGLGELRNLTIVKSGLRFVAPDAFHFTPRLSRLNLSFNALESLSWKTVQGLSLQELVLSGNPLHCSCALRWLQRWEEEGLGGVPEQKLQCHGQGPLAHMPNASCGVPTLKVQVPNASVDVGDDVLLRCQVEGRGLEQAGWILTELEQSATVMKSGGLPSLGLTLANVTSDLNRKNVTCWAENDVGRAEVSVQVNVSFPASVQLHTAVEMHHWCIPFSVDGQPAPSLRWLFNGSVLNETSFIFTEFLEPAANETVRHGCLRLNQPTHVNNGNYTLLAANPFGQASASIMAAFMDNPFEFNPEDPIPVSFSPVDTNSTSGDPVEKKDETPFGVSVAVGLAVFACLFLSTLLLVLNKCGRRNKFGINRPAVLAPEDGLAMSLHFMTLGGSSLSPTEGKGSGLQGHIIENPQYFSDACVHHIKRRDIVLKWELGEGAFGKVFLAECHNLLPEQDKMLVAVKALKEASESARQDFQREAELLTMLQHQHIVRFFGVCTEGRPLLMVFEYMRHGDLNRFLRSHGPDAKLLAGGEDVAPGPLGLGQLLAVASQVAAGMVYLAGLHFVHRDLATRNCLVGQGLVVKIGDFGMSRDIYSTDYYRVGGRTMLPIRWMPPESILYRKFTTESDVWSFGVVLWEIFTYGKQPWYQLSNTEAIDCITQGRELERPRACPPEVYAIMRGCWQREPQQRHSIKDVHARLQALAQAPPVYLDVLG
# PAK2 (human) = PAK2 (human) (UniProt Q13177)
# PAK3 (human) = PAK3 (human) (UniProt O75914)
# PDGFRB (human) = PDGFRB (human) (UniProt P09619)
# PLK3 (human) = PLK3 (human) (UniProt Q9H4B4)
# PRKCG (human) = PRKCG (human) (UniProt P05129)
# RET (human) = RET (human) (UniProt P07949)
# RPS6KA2 KD1 KD2 (human) = RPS6KA2 KD1 KD2 (human) (UniProt Q15349)
# RPS6KA6 KD1 KD2 (human) = RPS6KA6 KD1 KD2 (human) (UniProt Q9UK32)
# TAOK3 (human) = TAOK3 (human) (UniProt Q9H2K8)
# TEK (human) = TEK (human) (UniProt Q02763)
# TNK2 (human) = TNK2 (human) (UniProt Q07912)
# TSSK1B (human) = TSSK1B (human) (UniProt Q9BXA7)
# TSSK2 (human) = TSSK2 (human) (UniProt Q96PF2)
# TSSK2 (human), sequence (Q96PF2 whole entry, looked up): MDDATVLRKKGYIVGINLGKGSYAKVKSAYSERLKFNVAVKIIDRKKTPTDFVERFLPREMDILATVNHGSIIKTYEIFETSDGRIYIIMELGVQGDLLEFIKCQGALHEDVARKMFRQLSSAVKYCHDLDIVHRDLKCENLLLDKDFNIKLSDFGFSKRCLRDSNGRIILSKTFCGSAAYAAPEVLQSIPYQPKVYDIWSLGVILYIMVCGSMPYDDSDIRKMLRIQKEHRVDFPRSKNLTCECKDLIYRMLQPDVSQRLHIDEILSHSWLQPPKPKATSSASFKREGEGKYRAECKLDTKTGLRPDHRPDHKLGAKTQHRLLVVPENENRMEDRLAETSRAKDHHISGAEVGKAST
# [1] = molecular target: TYK2 JH1 catalytic (human) (UniProt P29597)
# VRK1 (human) = VRK1 (human) (UniProt Q99986)
# JAK3 JH1 JH2 (human) = JAK3 JH1 JH2 (human) (UniProt P52333)
# ACVR1 (human), sequence (Q04771 whole entry, looked up): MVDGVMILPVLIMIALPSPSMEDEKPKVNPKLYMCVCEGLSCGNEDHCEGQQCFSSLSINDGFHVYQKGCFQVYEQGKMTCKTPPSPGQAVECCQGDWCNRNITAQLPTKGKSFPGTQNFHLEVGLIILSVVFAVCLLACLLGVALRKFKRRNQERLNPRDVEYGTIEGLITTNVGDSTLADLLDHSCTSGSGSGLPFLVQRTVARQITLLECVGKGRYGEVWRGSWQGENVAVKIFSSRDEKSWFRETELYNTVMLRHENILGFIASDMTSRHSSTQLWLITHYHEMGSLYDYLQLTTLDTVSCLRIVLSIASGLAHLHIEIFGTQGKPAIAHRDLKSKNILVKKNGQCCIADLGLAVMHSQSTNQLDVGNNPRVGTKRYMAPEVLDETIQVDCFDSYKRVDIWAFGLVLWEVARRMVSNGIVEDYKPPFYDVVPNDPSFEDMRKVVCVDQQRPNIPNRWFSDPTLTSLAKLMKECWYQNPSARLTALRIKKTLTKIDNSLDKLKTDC
Structure (SMILES),residual activity (ACVR1 (human)) [%],residual activity (BLK (human)) [%],residual activity (CAMK1D (human)) [%],residual activity (CDK1 CCNB1 (human)) [%],residual activity (CDK6 CCND3 (human)) [%],residual activity (CHUK (human)) [%],residual activity (ERBB4 (human)) [%],residual activity (FGFR4 (human)) [%],residual activity (FLT3 (human)) [%],residual activity (GRK4 (human)) [%],residual activity (HIPK1 (human)) [%],residual activity (HIPK4 (human)) [%],residual activity (IGF1R (human)) [%],residual activity (KIT (human)) [%],residual activity (MAP2K2 (human)) [%],residual activity (MAP3K10 (human)) [%],residual activity (MAP3K7 TAB1 (human)) [%],residual activity (MAPKAPK3 (human)) [%],residual activity (MUSK (human)) [%],residual activity (MYLK (human)) [%],other results
N#C/C(=C\c1ccc(O)c(O)c1)C(=O)NCc1ccccc1,91.3,95.6,96.4,96.9,104,103,80.9,84.2,92.8,101,101,106,85.1,93.9,105,100,98.1,102,97.9,94.5,residual activity (MAPK14 (human)): 108%; residual activity (MST1R (human)): 102%; residual activity (MYLK2 (human)): 97.9%; residual activity (NEK1 (human)): 97.3%; residual activity (NTRK1 (human)): 98.4%; residual activity (PAK2 (human)): 76.8%; residual activity (PAK3 (human)): 101%; residual activity (PDGFRB (human)): 100%; residual activity (PLK3 (human)): 96.1%; residual activity (PRKCG (human)): 97.2%; residual activity (RET (human)): 108%; residual activity (RPS6KA2 KD1 KD2 (human)): 94.2%; residual activity (RPS6KA6 KD1 KD2 (human)): 108%; residual activity (TAOK3 (human)): 103%; residual activity (TEK (human)): 95.1%; residual activity (TNK2 (human)): 98.3%; residual activity (TSSK1B (human)): 90.2%; residual activity (TSSK2 (human)): 90%; residual activity [1]: 97.1%; residual activity (VRK1 (human)): 97%
COc1ccc(Cl)cc1NC(=O)Nc1cc(C)nc2ccccc12,76.2,99.8,99.9,81.1,99,100,97.8,102,94.4,105,97.2,109,94.9,102,94.1,94.9,101,101,93.3,95.7,residual activity (JAK3 JH1 JH2 (human)): 103%; residual activity (MAPK14 (human)): 98.5%; residual activity (MST1R (human)): 82.4%; residual activity (MYLK2 (human)): 99.3%; residual activity (NEK1 (human)): 96.3%; residual activity (NTRK1 (human)): 92.5%; residual activity (PAK2 (human)): 97.2%; residual activity (PAK3 (human)): 98.9%; residual activity (PDGFRB (human)): 105%; residual activity (PLK3 (human)): 100%; residual activity (PRKCG (human)): 107%; residual activity (RET (human)): 102%; residual activity (RPS6KA2 KD1 KD2 (human)): 99.8%; residual activity (TAOK3 (human)): 105%; residual activity (TEK (human)): 96.8%; residual activity (TNK2 (human)): 102%; residual activity (TSSK1B (human)): 94.6%; residual activity (TSSK2 (human)): 94%; residual activity [1]: 99.7%; residual activity (VRK1 (human)): 84.6%
O=C1Nc2ccc(Br)cc2/C1=C\c1cc2c([nH]1)CCCC2,97,74.4,96.8,98.5,85.8,99.1,84.6,77,3.86,101,97.2,104,74.3,30.5,92.1,99.8,60.9,95.1,88.6,95.7,residual activity (JAK3 JH1 JH2 (human)): 89.3%; residual activity (MST1R (human)): 88.3%; residual activity (MYLK2 (human)): 78.2%; residual activity (NEK1 (human)): 94.6%; residual activity (NTRK1 (human)): 51.8%; residual activity (PAK2 (human)): 90%; residual activity (PAK3 (human)): 96.4%; residual activity (PDGFRB (human)): 58.8%; residual activity (PLK3 (human)): 97.8%; residual activity (PRKCG (human)): 100%; residual activity (RET (human)): 42.9%; residual activity (RPS6KA2 KD1 KD2 (human)): 72%; residual activity (RPS6KA6 KD1 KD2 (human)): 78.6%; residual activity (TAOK3 (human)): 75.3%; residual activity (TEK (human)): 98.2%; residual activity (TNK2 (human)): 92.8%; residual activity (TSSK1B (human)): 36.1%; residual activity (TSSK2 (human)): 89.8%; residual activity [1]: 86%; residual activity (VRK1 (human)): 108%
COc1ccc2c(c1)/C(=C/c1cnc[nH]1)C(O)=N2,105,90.3,98.3,35.9,28,110,106,85.8,9.29,93.6,98.9,90.8,94.4,84.1,108,92.9,63.7,102,78.3,80.9,residual activity (JAK3 JH1 JH2 (human)): 49.6%; residual activity (MAPK14 (human)): 97.7%; residual activity (MYLK2 (human)): 21%; residual activity (NEK1 (human)): 84.4%; residual activity (NTRK1 (human)): 61.4%; residual activity (PAK2 (human)): 97.7%; residual activity (PAK3 (human)): 99.2%; residual activity (PLK3 (human)): 93%; residual activity (PRKCG (human)): 95.2%; residual activity (RPS6KA2 KD1 KD2 (human)): 44.3%; residual activity (RPS6KA6 KD1 KD2 (human)): 48.8%; residual activity (TAOK3 (human)): 44%; residual activity (TEK (human)): 98.4%; residual activity (TNK2 (human)): 92.6%; residual activity (TSSK1B (human)): 101%; residual activity (TSSK2 (human)): 97.3%; residual activity [1]: 45%; residual activity (VRK1 (human)): 91.2%
Fc1ccc(-c2nc3n(c2-c2ccncc2)CCS3)cc1,94.2,97.8,100,91.4,108,104,83,82.8,94.7,95.7,108,89.7,106,92.8,106,101,92.2,95.5,91.1,105,residual activity (JAK3 JH1 JH2 (human)): 94.3%; residual activity (MAPK14 (human)): 43.1%; residual activity (MST1R (human)): 97.3%; residual activity (MYLK2 (human)): 101%; residual activity (NEK1 (human)): 103%; residual activity (NTRK1 (human)): 99.5%; residual activity (PAK2 (human)): 84.7%; residual activity (PAK3 (human)): 104%; residual activity (PDGFRB (human)): 107%; residual activity (PLK3 (human)): 97.8%; residual activity (RET (human)): 99.5%; residual activity (RPS6KA2 KD1 KD2 (human)): 97.1%; residual activity (RPS6KA6 KD1 KD2 (human)): 115%; residual activity (TAOK3 (human)): 98.9%; residual activity (TEK (human)): 95.6%; residual activity (TNK2 (human)): 98%; residual activity (TSSK1B (human)): 119%; residual activity (TSSK2 (human)): 93.2%; residual activity [1]: 107%; residual activity (VRK1 (human)): 86.8%
